Test results: US8222434B1, “Bactobolin analog and synthesis method thereof” (priority 2009, dated 2012)
Entries after “also recorded” stand apart in the source; their conditions may differ.

Tests used:
BtaR2 [1] = assay type: cell-based, B. thailandensis; details: 3 h
BtaR2 [2] = assay type: cell-based, B. thailandensis
B. thailandensis JBT112 = assay type: cell-based, Burkholderia thailandensis
B. subtilis = assay type: cell-based, Bacillus subtilis; details: disc soaked in sterile medium containing 2 μM 3OHC10-HSL; B. subtilis lawn
S. aureus COL (MRSA) = test: CLSI microtiter MIC assay; assay type: cell-based, Staphylococcus aureus; details: for Minimum Inhibitory Concentration (MIC): S. aureus COL (MRSA), 24 hours at 35° C., average from two independent experiments
Description: (§1) To test the potency of bactobolins, antibiotic assays were carried out against the human pathogens MRSA, VRE and V. parahaemo-lyticus, and against B. subtilis and E. coli (Table 3-C).
(§2) The minimum inhibitory concentrations (MIC) of each bactobolin was determined according to the 2003 guidelines of the Clinical and Laboratory Standards Institute (CLSI, formerly NCCLS) using the microtiter MIC method. Inocula for each test organism were prepared by suspending a colony from an LB agar plate into Tryptic Soy Broth and growing for 3-5 hours at 35° C. with shaking, then adjusting the culture turbidity in PBS to the equivalent of a 1.0 McFarland Standard (3×10^8 CFU/ml). These cell suspensions were used as inocula for microtiter MIC assays. 2.5 μL inoculum, which corresponded to 1×10^6 cells, was added to a 200 μL well containing each bactobolin diluted in cation-adjusted Mueller-Hinton II broth (actual CFU/ml ranged from 5×104 to 1×106), and these were incubated without shaking for 24 hours at 35° C. The MIC was defined as the lowest concentration of bactobolin (μg/ml) in which bacterial growth in the well was not measurable by determining the turbidity at 595 nm (A595) on a 96-well plate reader. See Table S8 for strains used in these assays.

E. faecalis V583 (VRE) = test: CLSI microtiter MIC assay; assay type: cell-based, Enterococcus faecalis; details: 24 hours at 35° C., average from two independent experiments
Description: as §1, §2

[3] = test system: V. parahaemolyticus LM5674; test: CLSI microtiter MIC assay; assay type: cell-based, Vibrio parahaemolyticus
Description: as §1, §2

B. subtilis 3610 = test: CLSI microtiter MIC assay; assay type: cell-based, Bacillus subtilis; details: 24 hours at 35° C., average from two independent experiments
Description: as §1, §2

E. coli ATCC25922 = test: CLSI microtiter MIC assay; assay type: cell-based, Escherichia coli; details: 24 hours at 35° C., average from two independent experiments
Description: as §1, §2

[4] = test system: MRSA, VRE and V. parahaemo-lyticus, B. subtilis and E. coli; test: Antibiotic assays of bactobolins, overall comparison; assay type: cell-based; details: comparison over Table 3-C strains
Description: as §1, §2

E. coli = details: relative to bactobolin; cited from earlier work
translation = details: relative to bactobolin; cited from earlier work
tumor = details: relative to bactobolin; cited from earlier work
[5] = test system: B. thailandensis E264 (wt); assay type: cell-based, Burkholderia thailandensis
[6] = test system: B. thailandensis ΔbtaI1, I2, I3 (JBT112); assay type: cell-based, Burkholderia thailandensis
[7] = test system: B. thailandensis ΔbtaT (BD44); assay type: cell-based, Burkholderia thailandensis

| Compound | Activation of btaI2-lacZ transcription (BtaR2 [1]) | Restoration of antibiotic production in JBT112 (B. thailandensis JBT112) | Minimum Inhibitory Concentration (MIC) (S. aureus COL (MRSA)) | Minimum Inhibitory Concentration (MIC) (E. faecalis V583 (VRE)) | Minimum Inhibitory Concentration (MIC) (B. subtilis 3610) | Minimum Inhibitory Concentration (MIC) (E. coli ATCC25922) | Relative potency among bactobolins [4] | other results |
| --- | --- | --- | --- | --- | --- | --- | --- | --- |
| CCCCCC(O)CC(=O)N[C@H]1CCOC1=O (stereo partly shown) [Bactobolin 3OHC8-HSL] | Activation | requires exogenous 3OHC8-HSL or 3OHC10-HSL for antibiotic production | – | – | – | – | – | BtaR2-dependent induction of lacZ (1233 promoter) (BtaR2 [2]): sufficient for BtaR2-dependent induction of lacZ |
| CCCCCCCC(O)CC(=O)N[C@H]1CCOC1=O (stereo partly shown) [Bactobolin 3OHC10-HSL] | Activation | requires exogenous 3OHC8-HSL or 3OHC10-HSL for antibiotic production | – | – | – | – | – | antibiotic activity of acyl-HSL alone, diffusion disc (B. subtilis): not an antimicrobial molecule; also recorded: does not have antibiotic activity; BtaR2-dependent induction of lacZ (1233 promoter) (BtaR2 [2]): sufficient for BtaR2-dependent induction of lacZ |
| CCCCCCCC(=O)N[C@H]1CCOC1=O [Bactobolin C8-HSL] | no detectable response | unable to restore antibiotic production | – | – | – | – | – | – |
| CCCCCCCCCC(=O)N[C@H]1CCOC1=O [Bactobolin C10-HSL, N-decanoyl-HSL] | response | – | – | – | – | – | – | – |
| CCCCCCCCCCCC(=O)N[C@H]1CCOC1=O [Bactobolin C12-HSL, N-dodecanoyl-HSL] | response | – | – | – | – | – | – | – |
| C[C@@H](N)C(=O)N[C@@H]1[C@@H]2C[C@H](O)CC(O)=C2C(=O)O[C@]1(C)C(Cl)Cl [Bactobolin C] | – | – | 6.25 µg/mL | >25 µg/mL | 12.5 µg/mL | 25 µg/mL | – | Antibiotic effectiveness in words (S. aureus COL (MRSA); MRSA): effective against these strains, though to a lesser extent; Antibiotic effectiveness in words ([3]; V. parahaemolyticus): effective against these strains, though to a lesser extent; Minimum Inhibitory Concentration (MIC) ([3]; V. parahaemolyticus LM5674, 24 hours at 35° C., average from two independent experiments): 1.56 µg/mL |
| C[C@H](N)C(=O)N[C@@H](C)C(=O)N[C@@H]1[C@@H]2C[C@H](O)CC(O)=C2C(=O)O[C@]1(C)C(Cl)Cl [Bactobolin D] | – | – | 37.5 µg/mL | – | 100 µg/mL | >100 µg/mL | weakest analog | – |
| C[C@H](N)C(=O)N[C@@H]1[C@H]2C(=C(O)C[C@@H](O)[C@@H]2O)C(=O)O[C@@H]1C [actinobolin] | – | – | – | – | – | – | – | less active than bactobolin, E. coli kill-assays (E. coli): 21 fold; less active than bactobolin, in vitro inhibition of translation (translation): 1000 fold; less active than bactobolin, murine antitumor activity (tumor): 900 fold |
| Bactobolin A | – | – | 0.78 µg/mL | >25 µg/mL | 1.56 µg/mL | 6.25 µg/mL | more potent than bactobolins C and D | – |
| Bactobolin B | – | – | – | 25 µg/mL | 0.39 µg/mL | 1.56 µg/mL | more potent than bactobolins C and D | Bactobolin B MIC [5]: >25 µg/mL; Bactobolin B MIC [6]: >25 µg/mL; Bactobolin B MIC [7]: >25 µg/mL |
